Entries after “also recorded” stand apart in the source; their conditions may differ.
Assays:
M(IL-4) polarization = conditions: cited from earlier work
CPT-1 = target: T1, CPT-1 (Homo sapiens, UniProt P50416); assay: Palmitoyl CoA-driven respiration in permeabilized HepG2 cells; type: cell-based; set-up: endogenous in cells; host or cells: HepG2 (A5)
T1 sequence (P50416 1-773): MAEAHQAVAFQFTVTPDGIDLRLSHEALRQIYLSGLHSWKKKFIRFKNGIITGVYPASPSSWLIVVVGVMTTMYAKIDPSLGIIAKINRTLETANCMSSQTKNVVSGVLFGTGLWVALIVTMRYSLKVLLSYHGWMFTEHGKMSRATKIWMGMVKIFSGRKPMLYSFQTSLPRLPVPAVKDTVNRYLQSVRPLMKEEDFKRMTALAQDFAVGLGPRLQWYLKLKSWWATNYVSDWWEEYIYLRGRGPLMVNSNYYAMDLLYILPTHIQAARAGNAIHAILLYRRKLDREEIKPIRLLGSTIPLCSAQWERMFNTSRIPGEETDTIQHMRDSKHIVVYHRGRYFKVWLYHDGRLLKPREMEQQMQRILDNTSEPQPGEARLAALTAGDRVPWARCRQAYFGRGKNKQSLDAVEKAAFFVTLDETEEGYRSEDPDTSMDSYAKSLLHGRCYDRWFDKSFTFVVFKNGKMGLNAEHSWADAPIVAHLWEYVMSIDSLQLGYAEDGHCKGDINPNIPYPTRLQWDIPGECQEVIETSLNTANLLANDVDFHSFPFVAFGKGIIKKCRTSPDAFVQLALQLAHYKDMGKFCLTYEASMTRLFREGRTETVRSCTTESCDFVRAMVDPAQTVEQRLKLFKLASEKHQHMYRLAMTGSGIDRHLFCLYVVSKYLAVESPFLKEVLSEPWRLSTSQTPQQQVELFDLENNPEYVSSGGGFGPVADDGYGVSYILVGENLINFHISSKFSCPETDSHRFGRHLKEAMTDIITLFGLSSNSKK

Arginase = Arginase activity in BMDMs; type: cell-based, mouse; conditions: 200 μM etomoxir, IL-4, 24 hr
Experimental: On Day 6 of differentiation, BMDMs were seeded at 1×10^6 cells/well in 6-well plates. 24 hr later, BMDMs were mock-treated or co-treated with 20 ng/mL IL-4±200 μM etomoxir in DMEM supplemented with 5% FBS, 2 mM L-glutamine, 100 units/mL, 100 μg/mL penicillin/streptomycin, 500 μM of sodium pyruvate and 5% v/v conditioned media containing macrophage colony stimulating factor (M-CSF) for 24 hr. Prior to sample collections, cells were washed with 600 μL of ice-cold PBS twice and scraped into 1.5 mL centrifuge tubes. Cell lysate was prepared according to Arginase Activity Assay Kit (Sigma MAK112) instructions and the 20 μL of lysate was used to measure arginase activity. Arginase activity was adjusted to total cell number.

A549 cells = assay: Palmitate-driven respiration in intact A549 cells (Seahorse); type: cell-based; conditions: intact A549, albumin-buffered palmitate
Experimental: All respirometry studies were conducted in either a Seahorse XF96 or XFe96 Analyzer. All experiments were conducted at 37° C., and at pH 7.4 (intact cells) or 7.2 (permeabilized cells and isolated mitochondria). Calculation of respiratory parameters was made according to standard protocols (Divakaruni, A. S., Paradyse, A., Ferrick, D. A., Murphy, A. N., and Jastroch, M. (2014a) Analysis and interpretation of microplate-based oxygen consumption and pH data. Meth. Enzym 547, 509-54), and all rates were corrected for non-mitochondrial respiration/background signal by subtracting the oxygen consumption rate insensitive to rotenone plus antimycin A.
Palmitate oxidation in intact cells (FIG. 1A, FIG. 1B) was assessed by measuring palmitate-driven respiration that was sensitive to low concentrations of etomoxir (Rogers, G. W., Nadanaciva, S., Swiss, R., Divakaruni, A. S., and Will, Y. (2014) Assessment of fatty acid beta oxidation in cells and isolated mitochondria. Curr. Protoc. Toxicol. 60, 25.3, 1-19). […] Respiration was measured under basal conditions as well as after injection of 2 μM oligomycin, two sequential additions of 1 μM FCCP, followed by 0.2 μM rotenone with 1 μM antimycin A. Etomoxir was added to the assay medium 30 min. prior to measurements of basal respiratory rates.

[1] = tested on: adenine nucleotide translocase (ANT); assay: ATP hydrolysis in isolated mitochondria, intact or alamethicin-permeabilized; type: biochemical, rat
Excerpt: ATP hydrolysis in isolated mitochondria (McQuaker, S. J., Quinlan, C. L., Caldwell, S. T., Brand, M. D., and Hartley, R. C. (2013). A prototypical small molecule modulator uncouples mitochondria in response to endogenous hydrogen peroxide production. Chembiochem. 14, 993-1000; Divakaruni, A. S., Andreyev, A. Y., Rogers, G. W., and Murphy, A. N. (2017a) In situ measurements of mitochondrial matrix enzyme activities using plasma and mitochondrial membrane permeabilization agents. Anal. Biochem. 17, 30385-8) was performed in MAS buffer, and stimulated by respiratory chain inhibition (1 μM rotenone and 2 μM antimycin A) followed by addition of excess ATP (25 mM) and uncoupler (1 μM FCCP). Hydrolysis was inhibited by injection of either oligomycin (3 ng/mg mitochondrial protein) or carboxyatractylo side (7.5 ng/mg mitochondrial protein). Rates of extracellular acidification (ECAR, in mpH/min) were converted to proton production rates (PPR, in pmol H+/min) by determining the buffer capacity with sequential injections of HCl and H2SO4 (Mookerjee, S. A., Goncalves, R. L., Gerencser, A. A., Nicholls, D. G., and Brand, M. D. (2015). The contributions of respiration and glycolysis to extracellular acid production. Biochim et Biophys Acta. 1847, 171-81). 10 μg/mL alamethicin was used to permeabilize the mitochondrial inner membrane (1 μg/mg mitochondrial protein).

BMDMs = assay: Substrate-specific respirometry in permeabilized cells; type: cell-based, mouse; conditions: 3 μM etomoxir

Q: Which “blocking M(IL-4) polarization in Cpt2-/- BMDMs vs WT” value (M(IL-4) polarization; 200 μM etomoxir) does the source give for CCOC(=O)[C@@]1(CCCCCCOc2ccc(Cl)cc2)CO1 [etomoxir] here?
A: equally effective

Q: What about the “IL-4-associated markers / IL-4 response” value (M(IL-4) polarization; etomoxir 10 μM to 100 μM) of the same compound?
A: unaffected; also recorded: fail to affect

Q: And the “EC50, FCCP-stimulated palmitoyl CoA-driven respiration” value (CPT-1)?
A: nanomolar

Q: What about the “concentration of saturable effect” value (CPT-1) of the same compound?
A: less than 3 μM

Q: And the Arginase activity (Arginase)?
A: unaffected

Q: What about the “half-maximal inhibitory concentration (EC50) for uncoupler-stimulated respiration” value (A549 cells) of the same compound?
A: sub-micromolar

Q: What about the ATP hydrolysis ([1]; alamethicin-permeabilized mitochondria) of the same compound?
A: no effect

Q: And the ATP hydrolysis ([1]; intact isolated mitochondria, etomoxir 100 μM, CAT 7.5 ng/mg, oligomycin 3 ng/mg)?
A: inhibited ATP hydrolysis

Q: What about the “palmitoyl CoA oxidation” value (BMDMs) of the same compound?
A: significant effect

Q: What about the “respiration driven by substrates which do not require CPT-1” value (BMDMs; glutamate/malate, pyruvate/malate, palmitoylcarnitine/malate, succinate/rotenone) of the same compound?
A: no effect
